# Source: patent US12319640B2, “Cyclic diones as herbicidal compounds” (SYNGENTA CROP PROTECTION AG, priority 2019, dated 2025)
# How the values were obtained:
# Test in all cases: Glasshouse herbicide test, pre- and post-emergence
# Type in all cases: in vivo
# Setaria faberi (SETFA) = conditions: 250 g/h, evaluated after 13 days, five-point scale; for percentage damage caused to the plant, SETFA POST: post-emergence; for percentage damage caused to the plant, SETFA PRE: pre-emergence
# Description: (§1) Seeds of a variety of test species are sown in standard soil in pots (Lolium perenne (LOLPE), Setaria faberi (SETFA), Alopecurus myosuroides (ALOMY), Echinochloa crus-galli (ECHCG), Avena fatua (AVEFA)). After cultivation for one day (pre-emergence) or after 8 days cultivation (post-emergence) under controlled conditions in a glasshouse (at 24/16° C., day/night; 14 hours light; 65% humidity), the plants are sprayed with an aqueous spray solution derived from the formulation of the technical active ingredient in acetone/water (50:50) solution containing 0.5% Tween 20 (polyoxyethelyene sorbitan monolaurate, CAS RN 9005-64-5). Compounds are applied at 250 g/h. The test plants are then grown in a glasshouse under controlled conditions in a glasshouse (at 24/16° C., day/night; 14 hours light; 65% humidity) and watered twice daily. After 13 days for pre and post-emergence, the test is evaluated for the percentage damage caused to the plant. The biological activities are shown in the following table on a five-point scale (5=80-100%; 4=60-79%; 3=40-59%; 2=20-39%; 1=0-19%).
# Lolium perenne (LOLPE) = conditions: 250 g/h, evaluated after 13 days, five-point scale; for percentage damage caused to the plant, LOLPE POST: post-emergence; for percentage damage caused to the plant, LOLPE PRE: pre-emergence
# Description: as §1
# Avena fatua (AVEFA) = conditions: 250 g/h, evaluated after 13 days, five-point scale; for percentage damage caused to the plant, AVEFA POST: post-emergence; for percentage damage caused to the plant, AVEFA PRE: pre-emergence
# Description: as §1
# [1] = test system: Alopecurus myosuroides (ALOMY); conditions: 250 g/h, evaluated after 13 days, five-point scale; for percentage damage caused to the plant, ALOMY POST: post-emergence; for percentage damage caused to the plant, ALOMY PRE: pre-emergence
# Description: as §1
# [2] = test system: Echinochloa crus-galli (ECHCG); conditions: 250 g/h, evaluated after 13 days, five-point scale; for percentage damage caused to the plant, ECHCG POST: post-emergence; for percentage damage caused to the plant, ECHCG PRE: pre-emergence
# Description: as §1
SMILES,"percentage damage caused to the plant, SETFA POST (Setaria faberi (SETFA))","percentage damage caused to the plant, SETFA PRE (Setaria faberi (SETFA))","percentage damage caused to the plant, LOLPE POST (Lolium perenne (LOLPE))","percentage damage caused to the plant, LOLPE PRE (Lolium perenne (LOLPE))","percentage damage caused to the plant, AVEFA POST (Avena fatua (AVEFA))","percentage damage caused to the plant, AVEFA PRE (Avena fatua (AVEFA))","percentage damage caused to the plant, ALOMY POST [1]","percentage damage caused to the plant, ALOMY PRE [1]","percentage damage caused to the plant, ECHCG POST [2]","percentage damage caused to the plant, ECHCG PRE [2]"
CC#Cc1cc(C)c(C2C(=O)CC3(CCC(NC(=O)C(=O)NC)CC3)CC2=O)c(C)c1 (centres unmarked) [Compound 2.007],5 (5=80-100%),5 (5=80-100%),5 (5=80-100%),5 (5=80-100%),5 (5=80-100%),5 (5=80-100%),5 (5=80-100%),5 (5=80-100%),5 (5=80-100%),5 (5=80-100%)
CC#Cc1cc(C)c(C2C(=O)CC3(CCC(NC(=O)COC(F)F)CC3)CC2=O)c(C)c1 (centres unmarked) [Compound 2.008],5 (5=80-100%),5 (5=80-100%),5 (5=80-100%),5 (5=80-100%),5 (5=80-100%),5 (5=80-100%),5 (5=80-100%),5 (5=80-100%),5 (5=80-100%),5 (5=80-100%)
CC#Cc1cc(C)c(C2C(=O)CC3(CCC(NC(=O)C4COCCO4)CC3)CC2=O)c(C)c1 (centres unmarked) [Compound 2.009],5 (5=80-100%),5 (5=80-100%),5 (5=80-100%),5 (5=80-100%),5 (5=80-100%),4 (4=60-79%),4 (4=60-79%),4 (4=60-79%),5 (5=80-100%),5 (5=80-100%)
CC#Cc1cc(C)c(C2C(=O)CC3(CCC(NC(=O)CC#N)CC3)CC2=O)c(C)c1 (centres unmarked) [Compound 2.010],5 (5=80-100%),5 (5=80-100%),5 (5=80-100%),5 (5=80-100%),5 (5=80-100%),5 (5=80-100%),5 (5=80-100%),5 (5=80-100%),5 (5=80-100%),5 (5=80-100%)
CC#Cc1cc(C)c(C2C(=O)CC3(CCC(NC(=O)C(F)F)CC3)CC2=O)c(C)c1 (centres unmarked) [Compound 2.011],5 (5=80-100%),5 (5=80-100%),5 (5=80-100%),5 (5=80-100%),5 (5=80-100%),5 (5=80-100%),5 (5=80-100%),5 (5=80-100%),5 (5=80-100%),5 (5=80-100%)
CC#Cc1cc(C)c(C2C(=O)CC3(CCC(NC(=O)Nc4ccccn4)CC3)CC2=O)c(C)c1 (centres unmarked) [Compound 2.012],4 (4=60-79%),4 (4=60-79%),5 (5=80-100%),5 (5=80-100%),5 (5=80-100%),3 (3=40-59%),4 (4=60-79%),4 (4=60-79%),4 (4=60-79%),4 (4=60-79%)
CC#Cc1cc(C)c(C2C(=O)CC3(CCC(NC(=O)CCC#N)CC3)CC2=O)c(C)c1 (centres unmarked) [Compound 2.013],5 (5=80-100%),5 (5=80-100%),5 (5=80-100%),5 (5=80-100%),5 (5=80-100%),5 (5=80-100%),5 (5=80-100%),3 (3=40-59%),5 (5=80-100%),5 (5=80-100%)
CC#Cc1cc(C)c(C2C(=O)CC3(CCC(NC(=O)c4ccc(OC)nn4)CC3)CC2=O)c(C)c1 (centres unmarked) [Compound 2.014],5 (5=80-100%),5 (5=80-100%),5 (5=80-100%),5 (5=80-100%),5 (5=80-100%),5 (5=80-100%),5 (5=80-100%),5 (5=80-100%),5 (5=80-100%),5 (5=80-100%)
CC#Cc1cc(C)c(C2C(=O)CC3(CCC(NC(=O)c4nccnc4C)CC3)CC2=O)c(C)c1 (centres unmarked) [Compound 2.015],5 (5=80-100%),5 (5=80-100%),5 (5=80-100%),5 (5=80-100%),5 (5=80-100%),5 (5=80-100%),5 (5=80-100%),4 (4=60-79%),5 (5=80-100%),5 (5=80-100%)
CC#Cc1cc(C)c(C2C(=O)CC3(CCC(NC(=O)c4cnco4)CC3)CC2=O)c(C)c1 (centres unmarked) [Compound 2.016],5 (5=80-100%),5 (5=80-100%),5 (5=80-100%),5 (5=80-100%),5 (5=80-100%),4 (4=60-79%),4 (4=60-79%),3 (3=40-59%),5 (5=80-100%),5 (5=80-100%)
CC#Cc1cc(C)c(C2C(=O)CC3(CCC(NC(=O)[C@H](C)O)CC3)CC2=O)c(C)c1 (some centres unmarked) [Compound 2.017],5 (5=80-100%),5 (5=80-100%),5 (5=80-100%),4 (4=60-79%),5 (5=80-100%),4 (4=60-79%),5 (5=80-100%),4 (4=60-79%),5 (5=80-100%),5 (5=80-100%)
